Values of other authors, collected in paper PMC3993928 (Journal of Medicinal Chemistry, 2014).

Assays:
C57BL/6 mice = conditions: mouse WWTW
δ opioid receptor (DOPr) [1] = target: T1, δ opioid receptor (DOPr) (Rattus norvegicus, UniProt P33533); conditions: read-out: Ki (nM) DOPr; [3H]diprenorphine displacement
κ opioid receptor (KOPr) [2] = target: T2, κ opioid receptor (KOPr) (Homo sapiens, UniProt P41145); conditions: relative to U69,593 at 10 μM; dns = does not stimulate
κ opioid receptor (KOPr) [3] = target: T2, κ opioid receptor (KOPr); conditions: read-out: Ki (nM) KOPr; [3H]diprenorphine displacement
μ opioid receptor (MOPr) [4] = target: T3, μ opioid receptor (MOPr) (Rattus norvegicus, UniProt P33535); conditions: read-out: EC50 (nM), MOPr; [35S]GTPγS binding
T3 sequence (P33535 whole entry): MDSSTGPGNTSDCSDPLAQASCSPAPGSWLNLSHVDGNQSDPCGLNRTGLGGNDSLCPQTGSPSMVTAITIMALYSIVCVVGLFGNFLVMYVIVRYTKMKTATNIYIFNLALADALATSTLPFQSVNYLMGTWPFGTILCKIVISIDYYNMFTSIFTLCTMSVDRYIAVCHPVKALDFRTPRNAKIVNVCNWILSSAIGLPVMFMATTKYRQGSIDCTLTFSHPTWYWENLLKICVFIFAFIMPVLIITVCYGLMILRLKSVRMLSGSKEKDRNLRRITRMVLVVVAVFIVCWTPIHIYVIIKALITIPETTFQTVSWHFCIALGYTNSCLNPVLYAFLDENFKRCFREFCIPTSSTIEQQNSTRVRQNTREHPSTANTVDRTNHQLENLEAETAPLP

δ opioid receptor (DOPr) [5] = target: T1, δ opioid receptor (DOPr); conditions: relative to DPDPE at 10 μM; dns = does not stimulate
μ opioid receptor (MOPr) [6] = target: T3, μ opioid receptor (MOPr); conditions: read-out: Ki (nM) MOPr; [3H]diprenorphine displacement

T2 sequence (P41145 whole entry): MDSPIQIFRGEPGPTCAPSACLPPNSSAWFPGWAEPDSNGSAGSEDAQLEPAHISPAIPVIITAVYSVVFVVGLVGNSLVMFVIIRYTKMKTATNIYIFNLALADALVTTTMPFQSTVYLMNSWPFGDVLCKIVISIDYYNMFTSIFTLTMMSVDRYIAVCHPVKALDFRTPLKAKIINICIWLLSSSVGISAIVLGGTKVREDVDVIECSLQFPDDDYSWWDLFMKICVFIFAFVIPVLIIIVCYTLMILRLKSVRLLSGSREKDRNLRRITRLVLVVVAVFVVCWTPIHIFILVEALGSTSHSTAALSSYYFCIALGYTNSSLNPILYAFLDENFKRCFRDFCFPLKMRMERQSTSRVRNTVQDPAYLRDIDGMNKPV
T1 sequence (P33533 whole entry): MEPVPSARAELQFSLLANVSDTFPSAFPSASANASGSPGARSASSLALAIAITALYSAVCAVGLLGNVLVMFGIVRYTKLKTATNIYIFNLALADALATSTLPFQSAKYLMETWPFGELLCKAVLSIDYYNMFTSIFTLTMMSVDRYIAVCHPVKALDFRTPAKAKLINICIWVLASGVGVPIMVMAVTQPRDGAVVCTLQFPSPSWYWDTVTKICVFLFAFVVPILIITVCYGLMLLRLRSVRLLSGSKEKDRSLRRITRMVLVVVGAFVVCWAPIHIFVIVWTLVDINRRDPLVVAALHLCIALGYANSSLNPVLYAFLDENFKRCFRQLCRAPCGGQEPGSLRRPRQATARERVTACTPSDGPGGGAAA

Molecule | duration of antinociceptive action relative to 4 (fold longer) (C57BL/6 mice) | Ki (δ opioid receptor (DOPr) [1]) | efficacy (% of control), KOPr (κ opioid receptor (KOPr) [2]) | Ki (κ opioid receptor (KOPr) [3]) | EC50 (μ opioid receptor (MOPr) [4]) | efficacy (% of control), DOPr (δ opioid receptor (DOPr) [5]) | Ki (μ opioid receptor (MOPr) [6])
CN1CC[C@]23c4c5ccc(O)c4O[C@H]2[C@@H](O)C=C[C@H]3[C@H]1C5 [morphine] | approximately 2 fold | – | – | – | – | – | –
Dmt-c(SEtS)[DCys-Aci-DPen]OH [compound 1] | – | 2.3 ± 0.5 nM | dns | 776 ± 149 nM | 4.7 ± 0.7 nM | dns | 2.4 ± 0.7 nM
